Laboratory results: patent publication US8034940B2, “Modulators of glucocorticoid receptor, AP-1, and/or NF-κB activity and use thereof” (Bristol-Myers Squibb Company, priority 2006, dated 2011)
Read-outs that look alike come from different tables or passages of the source.

Columns and labels:
[1] = tested on: AP-1 induced transcriptional activity; experiment: Cellular Transrepressional Assay (AP-1 luciferase reporter, PMA-activated A549 cells); assay type: cell-based; conditions: Homo sapiens, A549, 7 h, maximum inhibition, Cellular Transrepression Assay; read-out: AP-1 Max % inh (Cellular Transrepression Assay)
Outline: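 A549 cells stably carrying a 7× AP-1–luciferase reporter were stimulated with 10 ng/ml PMA with or without compound (0.1 nM–40 μM) for 7 h. Luminescence read 10 min after luciferase reagent; EC50 fitted from % decrease versus PMA-only signal.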

[2] = molecular target: T1, human full-length glucocorticoid receptor (Homo sapiens, UniProt P04150); experiment: Glucocorticoid Receptor Binding Assay (I), fluorescence polarization, Fluormone GS Red; design: purified human recombinant full-length glucocorticoid receptor; purchased Invitrogen Part #2893
T1 sequence (P04150 1-777): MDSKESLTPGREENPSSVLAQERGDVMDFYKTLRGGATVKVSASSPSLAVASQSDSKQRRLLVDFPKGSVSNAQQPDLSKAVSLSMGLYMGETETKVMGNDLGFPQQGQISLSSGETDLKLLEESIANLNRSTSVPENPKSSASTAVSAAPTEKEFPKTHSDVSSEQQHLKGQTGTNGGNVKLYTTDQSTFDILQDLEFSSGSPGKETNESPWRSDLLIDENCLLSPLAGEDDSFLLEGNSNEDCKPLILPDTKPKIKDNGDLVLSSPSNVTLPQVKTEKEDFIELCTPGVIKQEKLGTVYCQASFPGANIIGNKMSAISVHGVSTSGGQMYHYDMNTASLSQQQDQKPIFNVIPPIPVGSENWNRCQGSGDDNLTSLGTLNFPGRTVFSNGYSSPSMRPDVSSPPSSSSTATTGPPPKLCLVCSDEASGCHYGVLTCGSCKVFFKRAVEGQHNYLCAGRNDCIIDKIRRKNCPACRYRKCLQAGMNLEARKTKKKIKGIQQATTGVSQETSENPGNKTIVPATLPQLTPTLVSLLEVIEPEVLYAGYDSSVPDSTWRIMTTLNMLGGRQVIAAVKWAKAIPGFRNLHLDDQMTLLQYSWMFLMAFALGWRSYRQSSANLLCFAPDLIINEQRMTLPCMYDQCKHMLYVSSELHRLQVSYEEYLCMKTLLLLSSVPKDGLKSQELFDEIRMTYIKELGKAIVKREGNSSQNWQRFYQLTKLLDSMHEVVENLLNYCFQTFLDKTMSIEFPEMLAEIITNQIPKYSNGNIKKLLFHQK
Description: Glucocorticoid Receptor Binding Assay (I)^a
Briefly, purified human recombinant full-length glucocorticoid receptor (2 nM) was mixed with fluorescently labeled glucocorticoid (1 nM Fluormone GS Red) in the presence or absence of test compound. After two hour incubation at room temperature in the dark, the fluorescence polarization (FP) of the samples was measured. […] Test compounds were analyzed in the concentration range from 8.5E-05 μM to 5 μM.

[3] = GR Binding Assay (I), read-out: GR (Ki, nM) (GR Binding Assay (I))

| Compound | Emax [1] [%] | Ki [2, 3] [nM] | Ki [2] [nM] |
| --- | --- | --- | --- |
| CN(CCc1ccccc1)C(=O)c1ccc(-c2ccc3c(n2)Oc2ccccc2[C@@H]3C(C)(C)C(=O)Nc2nncs2)cc1 [Example 276] | 27.2 | 4.05 | – |
| CN(C)[C@@H]1CCN(C(=O)c2ccc(-c3ccc4c(n3)Oc3ccccc3[C@@H]4C(C)(C)C(=O)Nc3nncs3)cc2)C1 [Example 307] | 37.1 | 67.5 | – |
| CC(C)(C(=O)Nc1nncs1)[C@H]1c2ccccc2Oc2nc(-c3ccc(C(=O)NCCc4ccccc4)cc3)ccc21 [Example 354] | 28.9 | 20.1 | – |
| CN(Cc1ccncc1)C(=O)c1ccc(-c2ccc3c(n2)Oc2ccccc2[C@@H]3C(C)(C)C(=O)Nc2nncs2)cc1 [Example 301] | 28.6 | 20.3 | – |
| COCCN(C)C(=O)c1ccc(-c2ccc3c(n2)Oc2ccccc2[C@@H]3C(C)(C)C(=O)Nc2nncs2)cc1 [Example 295] | 24.4 | 38.7 | – |
| CC(C)(C(=O)Nc1nncs1)[C@H]1c2ccccc2Oc2nc(-c3ccc(C(=O)N4CCCN(CCO)CC4)cc3)ccc21 [Example 303] | 28.6 | 278 | – |
| CC(C)CCN(C)C(=O)c1ccc(-c2ccc3c(n2)Oc2ccccc2[C@@H]3C(C)(C)C(=O)Nc2nncs2)cc1 [Example 270] | 28 | 20.9 | – |
| COC(=O)CN(C)C(=O)c1ccc(-c2ccc3c(n2)Oc2ccccc2[C@@H]3C(C)(C)C(=O)Nc2nncs2)cc1 [Example 293] | 25.4 | 10.4 | – |
| CCS(=O)(=O)N1CCN(C(=O)c2ccc(-c3ccc4c(n3)Oc3ccccc3[C@@H]4C(C)(C)C(=O)Nc3nncs3)cc2)CC1 [Example 283] | 24.6 | 9.21 | – |
| CN(CCS(C)(=O)=O)C(=O)c1ccc(-c2ccc3c(n2)Oc2ccccc2[C@@H]3C(C)(C)C(=O)Nc2nncs2)cc1 [Example 286] | 49.8 | 12.2 | – |
| CC(C)(C(=O)Nc1nncs1)[C@H]1c2ccccc2Oc2nc(-c3ccc(C(=O)N4CCc5ccccc5C4)cc3)ccc21 [Example 280] | 33.5 | 10.8 | – |
| CC(C)(C(=O)Nc1nncs1)[C@H]1c2ccccc2Oc2nc(-c3ccc(C(=O)NCCO)cc3)ccc21 [Example 357] | 29.6 | 31.4 | – |
| CC(C)(C(=O)Nc1nncs1)[C@H]1c2ccccc2Oc2nc(-c3ccc(C(=O)NCc4ccccc4)cc3)ccc21 [Example 349] | 31.7 | 5.88 | – |
| COC[C@H]1CCCN1C(=O)c1ccc(-c2ccc3c(n2)Oc2ccccc2[C@@H]3C(C)(C)C(=O)Nc2nncs2)cc1 [Example 285] | 45.3 | 5.84 | – |
| CC(C)(C(=O)Nc1nncs1)[C@H]1c2ccccc2Oc2nc(-c3ccc(C(=O)N[C@H]4CCC[C@H]4C(N)=O)cc3)ccc21 [Example 360] | – | 154 | – |
| CN(C)C(=O)CN(C)C(=O)c1ccc(-c2ccc3c(n2)Oc2ccccc2[C@@H]3C(C)(C)C(=O)Nc2nncs2)cc1 [Example 319] | – | 110 | – |
| CC(C)(C(=O)Nc1nncs1)[C@H]1c2ccccc2Oc2nc(-c3ccc(C(=O)N4CCN(CCO)CC4)cc3)ccc21 [Example 275] | 26 | 2.6 | – |
| CNC(=O)c1ccc(-c2ccc3c(n2)Oc2ccccc2[C@@H]3C(C)(C)C(=O)Nc2nncs2)cc1OC [Example 361] | – | 14.6 | – |
| CC(C)(C(=O)Nc1nncs1)[C@H]1c2ccccc2Oc2nc(-c3ccc(C(=O)N4CCNC(=O)C4)cc3)ccc21 [Example 296] | – | 19.1 | – |
| CC(C)(C(=O)Nc1nncs1)C1c2ccccc2Oc2cc(NC(=O)Nc3nccs3)ccc21 (stereo not shown) [Example 123] | – | 17.8 | – |
| CC(C)(C(=O)Nc1nncs1)[C@H]1c2ccccc2Oc2nc(-c3ccc(C(=O)N4CCC(O)CC4)cc3)ccc21 [Example 269] | – | 14.7 | – |
| CC(C)CC1CCCN1C(=O)c1ccc(-c2ccc3c(n2)Oc2ccccc2[C@@H]3C(C)(C)C(=O)Nc2nncs2)cc1 (stereo partly shown) [Example 317] | – | 23.7 | – |
| CC(C)C(=O)N1CC=C(c2ccc3c(n2)Oc2ccccc2[C@@H]3C(C)(C)C(=O)Nc2nncs2)CC1 [Example 409] | – | 78.2 | – |
| CN(C)C(=O)c1ccc(-c2ccc3c(n2)Oc2ccccc2C3C2(C(=O)Nc3nncs3)CCOCC2)cc1 (stereo not shown) [Example 483] | – | 426 | – |
| CC(C)(C(=O)Nc1nncs1)[C@H]1c2ccccc2Oc2nc(-c3ccc(OC4CCOCC4)c(F)c3)ccc21 [Example 242] | – | 412 | – |
| CC(C)(C(=O)Nc1nncs1)[C@H]1c2ccccc2Oc2nc(-c3ccc(C(=O)NCCCO)cc3)ccc21 [Example 359] | – | 30.1 | – |

| Compound | Emax [1] [%] | Ki [2, 3] [nM] | Ki [2] [nM] |
| --- | --- | --- | --- |
| CC(C)(C)NC(=O)c1ccc(-c2ccc3c(n2)Oc2ccccc2[C@@H]3C(C)(C)C(=O)Nc2nncs2)cc1 [Example 352] | – | 42.1 | – |
| CCN(CC)C(=O)c1ccc(-c2ccc3c(n2)Oc2ccccc2[C@@H]3C(C)(C)C(=O)Nc2nncs2)cc1OC [Example 262] | – | 18.2 | – |
| CC(C)(C(=O)Nc1nncs1)[C@H]1c2ccccc2Oc2nc(-c3ccc(C(=O)N4CCC[C@@H](O)C4)cc3)ccc21 [Example 284] | – | 17.4 | – |
| CC(C)(C(=O)Nc1nncs1)[C@H]1c2ccccc2Oc2nc(C(=O)NCc3ccccc3)ccc21 [Example 396] | – | 10.6 | – |
| Cc1ccn(-c2ccc3c(n2)Oc2ccccc2[C@@H]3C(C)(C)C(=O)Nc2nncs2)c(=O)c1 [Example 405] | – | 424 | – |
| CC(C)(C(=O)Nc1nncs1)[C@H]1c2ccccc2Oc2nc(C3=CCNCC3)ccc21 [Example 407] | – | 958 | – |
| CC(C)(C(=O)Nc1nncs1)[C@H]1c2ccccc2Oc2nc(N3CCN(C(=O)N4CCCC4)CC3)ccc21 [Example 400] | – | 37.3 | – |
| CC(C)(C(=O)Nc1nncs1)[C@H]1c2ccccc2Oc2nc(-c3ccc(OC4CCCC4)c(F)c3)ccc21 [Example 244] | – | > 1150 | – |
| CN(CC(=O)O)C(=O)c1ccc(-c2ccc3c(n2)Oc2ccccc2[C@@H]3C(C)(C)C(=O)Nc2nncs2)cc1 [Example 338] | – | 312 | – |
| O=C(c1ccc(-c2ccc3c(n2)Oc2ccccc2C3C2(C(=O)Nc3nncs3)CCC2)cc1)N1CCOCC1 (single isomer, unassigned) [Example 487] | – | > 1150 | – |
| CC(C)(C(=O)Nc1nncs1)[C@H]1c2ccccc2Oc2nc(-c3ccc(C(=O)N4CCC[C@H]4C(N)=O)cc3)ccc21 [Example 282] | – | 13.4 | – |
| CN(C)C(=O)c1ccc(-c2ccc3c(n2)Oc2ccccc2C3C(C)(C)C(=O)NC(C)(C)C)cc1 (stereo not shown) [Example 362] | – | 805 | – |
| CC(=O)NC(C)(C)c1ccc(-c2ccc3c(n2)Oc2ccccc2[C@@H]3C(C)(C)C(=O)Nc2nncs2)cc1 [Example 415] | – | 64.1 | – |
| CN(C)C(=O)c1ccc(-c2ccc3c(n2)Oc2ccccc2C3C(C)(C)C(=O)Nc2ncc[nH]2)cc1 (stereo not shown) [Example 440] | – | 21 | – |
| CC(C)(C(=O)Nc1nncs1)[C@H]1c2ccccc2Oc2nc(-c3ccc(C(=O)O)cc3)ccc21 [Example 174] | – | – | 10.2 |
| CC(C)(N)c1ccc(-c2ccc3c(n2)Oc2ccccc2[C@@H]3C(C)(C)C(=O)Nc2nncs2)cc1 [Example 416] | – | 94.5 | – |
| COc1cc(-c2ccc3c(n2)Oc2ccccc2[C@@H]3C(C)(C)C(=O)Nc2nncs2)ccc1C(=O)N(C)C [Example 347] | – | 5.63 | – |
| CN(Cc1ccccc1)C(=O)c1ccc(-c2ccc3c(n2)Oc2ccccc2[C@@H]3C(C)(C)C(=O)Nc2nncs2)cc1 [Example 255] | – | 16.1 | – |
| CNC(=O)c1ccc(-c2ccc3c(n2)Oc2ccccc2[C@@H]3C(C)(C)C(=O)Nc2nncs2)cc1F [Example 253] | – | – | 6.28 |
| CC(C)(C(=O)Nc1cnns1)[C@H]1c2ccccc2Oc2nc(-c3ccc(C(=O)N4CCCC4)c(F)c3)ccc21 [Example 414] | – | 589 | – |
| CC(C)(C(=O)Nc1nncs1)[C@H]1c2ccccc2Oc2nc(-c3ccc(C(=O)N4CCC(c5ccccc5)CC4)cc3)ccc21 [Example 281] | – | 33.5 | – |
| CN1CCCN(C(=O)c2ccc(-c3ccc4c(n3)Oc3ccccc3[C@@H]4C(C)(C)C(=O)Nc3nncs3)cc2)CC1 [Example 297] | – | > 1150 | – |
| CC(C)(C(=O)Nc1nncs1)C1c2ccccc2Oc2cc(-c3ccc(C(=O)O)s3)ccc21 (stereo not shown) [Example 103] | – | 6.06 | – |
| Cc1nnc(NC(=O)C(C)(C)C2c3ccccc3Oc3cc(-c4ccc(C(=O)N5CCOCC5)cc4)ncc32)s1 (stereo not shown) [Example 493] | – | 109 | – |
| CC(C)(C(=O)Nc1nncs1)[C@H]1c2ccccc2Oc2nc(-c3ccc(C(=O)N4CCCC(F)(F)C4)cc3)ccc21 [Example 287] | – | 16.8 | – |
| Cc1nnc(NC(=O)C(C)(C)[C@H]2c3ccccc3Oc3nc(-c4ccc(C(=O)N5CCC(=O)CC5)cc4)ccc32)s1 [Example 475] | – | – | 18.3 |
